Experimental data taken from patent US9693556B2, “Herbicidal pyridazinone derivatives” (SYNGENTA LIMITED, priority 2011, dated 2017).

Columns and labels:
Assay type in all cases: in vivo
[1] = test system: Alopecurus myosuroides (ALOMY); assay: Pre-emergence herbicidal glasshouse test on Alopecurus myosuroides; conditions: pre-emergence; 1000 g/h; evaluated after 13 days
In short: (§1)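 Plants sprayed 1 day (pre-emergence) or 8 days (post-emergence) after sowing with compound at 1000 g/h in acetone/water 50:50 with 0.5% Tween 20; glasshouse 24/16° C, 14 h light, 65% humidity. Damage assessed after 13 days, scored 1–5 (5 = 80-100%, 1 = 0-19%).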

Setaria faberi (SETFA) [2] = assay: Pre-emergence herbicidal glasshouse test on Setaria faberi; conditions: pre-emergence; 1000 g/h; evaluated after 13 days
In short: as §1

[3] = test system: Echinochloa crus-galli (ECHCG); assay: Pre-emergence herbicidal glasshouse test on Echinochloa crus-galli; conditions: pre-emergence; 1000 g/h; evaluated after 13 days
In short: as §1

Solanum nigrum (SOLNI) [4] = assay: Pre-emergence herbicidal glasshouse test on Solanum nigrum; conditions: pre-emergence; 1000 g/h; evaluated after 13 days
In short: as §1

[5] = test system: Amaranthus retoflexus (AMARE); assay: Pre-emergence herbicidal glasshouse test on Amaranthus retoflexus; conditions: pre-emergence; 1000 g/h; evaluated after 13 days
In short: as §1

[6] = test system: Ipomoea hederacea (IPOHE); assay: Pre-emergence herbicidal glasshouse test on Ipomoea hederacea; conditions: pre-emergence; 1000 g/h; evaluated after 13 days
In short: as §1

[7] = test system: Alopecurus myosuroides (ALOMY); assay: Post-emergence herbicidal glasshouse test on Alopecurus myosuroides; conditions: post-emergence; 1000 g/h; evaluated after 13 days
In short: as §1

Setaria faberi (SETFA) [8] = assay: Post-emergence herbicidal glasshouse test on Setaria faberi; conditions: post-emergence; 1000 g/h; evaluated after 13 days
In short: as §1

[9] = test system: Echinochloa crus-galli (ECHCG); assay: Post-emergence herbicidal glasshouse test on Echinochloa crus-galli; conditions: post-emergence; 1000 g/h; evaluated after 13 days
In short: as §1

Solanum nigrum (SOLNI) [10] = assay: Post-emergence herbicidal glasshouse test on Solanum nigrum; conditions: post-emergence; 1000 g/h; evaluated after 13 days
In short: as §1

[11] = test system: Amaranthus retoflexus (AMARE); assay: Post-emergence herbicidal glasshouse test on Amaranthus retoflexus; conditions: post-emergence; 1000 g/h; evaluated after 13 days
In short: as §1

[12] = test system: Ipomoea hederacea (IPOHE); assay: Post-emergence herbicidal glasshouse test on Ipomoea hederacea; conditions: post-emergence; 1000 g/h; evaluated after 13 days
In short: as §1

| Compound | PRE Application ALOMY herbicidal damage (five point scale) [1] | PRE Application SETFA herbicidal damage (five point scale) (Setaria faberi (SETFA) [2]) | PRE Application ECHCG herbicidal damage (five point scale) [3] | PRE Application SOLNI herbicidal damage (five point scale) (Solanum nigrum (SOLNI) [4]) | PRE Application AMARE herbicidal damage (five point scale) [5] | PRE Application IPOHE herbicidal damage (five point scale) [6] | POST Application ALOMY herbicidal damage (five point scale) [7] | POST Application SETFA herbicidal damage (five point scale) (Setaria faberi (SETFA) [8]) | POST Application ECHCG herbicidal damage (five point scale) [9] | POST Application SOLNI herbicidal damage (five point scale) (Solanum nigrum (SOLNI) [10]) | POST Application AMARE herbicidal damage (five point scale) [11] | POST Application IPOHE herbicidal damage (five point scale) [12] |
| --- | --- | --- | --- | --- | --- | --- | --- | --- | --- | --- | --- | --- |
| CSc1ccn(-c2cnn(C)c(=O)c2O)c(=O)c1 [Compound 1.027] | 1 (1=0-19% damage) | 3 (3=40-59% damage) | 5 (5=80-100% damage) | 4 (4=60-79% damage) | 5 (5=80-100% damage) | 1 (1=0-19% damage) | 1 (1=0-19% damage) | 5 (5=80-100% damage) | 5 (5=80-100% damage) | 5 (5=80-100% damage) | 5 (5=80-100% damage) | 5 (5=80-100% damage) |
| Cn1ncc(-n2ccc(C(F)(F)F)c(-c3ccccc3)c2=O)c(O)c1=O [Compound 1.054] | 5 (5=80-100% damage) | 5 (5=80-100% damage) | 5 (5=80-100% damage) | 5 (5=80-100% damage) | 5 (5=80-100% damage) | 3 (3=40-59% damage) | 5 (5=80-100% damage) | 5 (5=80-100% damage) | 5 (5=80-100% damage) | 5 (5=80-100% damage) | 5 (5=80-100% damage) | 4 (4=60-79% damage) |
| COc1cc(-c2c(C(F)(F)F)ccn(-c3cnn(C)c(=O)c3O)c2=O)cc(OC)c1OC [Compound 7.021] | 5 (5=80-100% damage) | 5 (5=80-100% damage) | 5 (5=80-100% damage) | 5 (5=80-100% damage) | 5 (5=80-100% damage) | 4 (4=60-79% damage) | 5 (5=80-100% damage) | 5 (5=80-100% damage) | 5 (5=80-100% damage) | 5 (5=80-100% damage) | 5 (5=80-100% damage) | 4 (4=60-79% damage) |
| Cc1ccc(Cl)c(-c2c(C(F)(F)F)ccn(-c3cnn(C)c(=O)c3O)c2=O)c1 [Compound 7.032] | 4 (4=60-79% damage) | 5 (5=80-100% damage) | 5 (5=80-100% damage) | 5 (5=80-100% damage) | 5 (5=80-100% damage) | 5 (5=80-100% damage) | 3 (3=40-59% damage) | 5 (5=80-100% damage) | 5 (5=80-100% damage) | 5 (5=80-100% damage) | 5 (5=80-100% damage) | 5 (5=80-100% damage) |
| Cc1c(-c2c(C3CC3)nn(C)c(=O)c2O)ccc(S(C)(=O)=O)c1C1=NOCC1 [Compound 2.019] | 4 (4=60-79% damage) | 2 (2=20-39% damage) | 5 (5=80-100% damage) | 5 (5=80-100% damage) | 5 (5=80-100% damage) | 4 (4=60-79% damage) | 5 (5=80-100% damage) | 4 (4=60-79% damage) | 4 (4=60-79% damage) | 5 (5=80-100% damage) | 5 (5=80-100% damage) | 5 (5=80-100% damage) |
| Cn1ncc(-c2cccn(Cc3ccccc3)c2=O)c(O)c1=O [Compound 9.008] | 1 (1=0-19% damage) | 1 (1=0-19% damage) | 4 (4=60-79% damage) | 2 (2=20-39% damage) | 2 (2=20-39% damage) | 1 (1=0-19% damage) | 1 (1=0-19% damage) | 1 (1=0-19% damage) | 1 (1=0-19% damage) | 3 (3=40-59% damage) | 3 (3=40-59% damage) | 1 (1=0-19% damage) |
| Cn1ncc(-c2ccc(S(C)(=O)=O)c3c2COC3)c(O)c1=O [Compound 1.030] | 1 (1=0-19% damage) | 1 (1=0-19% damage) | 2 (2=20-39% damage) | 4 (4=60-79% damage) | 5 (5=80-100% damage) | 1 (1=0-19% damage) | 1 (1=0-19% damage) | 2 (2=20-39% damage) | 4 (4=60-79% damage) | 5 (5=80-100% damage) | 5 (5=80-100% damage) | 3 (3=40-59% damage) |
| Cn1ncc(-c2ccc(S(C)(=O)=O)cc2Cl)c(O)c1=O [Compound 1.105] | 2 (2=20-39% damage) | 2 (2=20-39% damage) | 5 (5=80-100% damage) | 4 (4=60-79% damage) | 5 (5=80-100% damage) | 1 (1=0-19% damage) | 2 (2=20-39% damage) | 1 (1=0-19% damage) | 5 (5=80-100% damage) | 5 (5=80-100% damage) | 5 (5=80-100% damage) | 5 (5=80-100% damage) |
| Cn1ncc(-c2cccnc2OCC(F)F)c(O)c1=O [Compound 4.011] | 1 (1=0-19% damage) | 1 (1=0-19% damage) | 1 (1=0-19% damage) | 1 (1=0-19% damage) | 1 (1=0-19% damage) | 1 (1=0-19% damage) | 1 (1=0-19% damage) | 1 (1=0-19% damage) | 1 (1=0-19% damage) | 5 (5=80-100% damage) | 4 (4=60-79% damage) | 3 (3=40-59% damage) |
| Cn1ncc(-n2ccc(C(F)(F)F)c(-c3cc(Cl)cc(Cl)c3)c2=O)c(O)c1=O [Compound 7.022] | 5 (5=80-100% damage) | 5 (5=80-100% damage) | 5 (5=80-100% damage) | 5 (5=80-100% damage) | 5 (5=80-100% damage) | 2 (2=20-39% damage) | 4 (4=60-79% damage) | 5 (5=80-100% damage) | 5 (5=80-100% damage) | 5 (5=80-100% damage) | 5 (5=80-100% damage) | 2 (2=20-39% damage) |
